Results as given in patent publication US5650406A, “Adamantane derivative, process for producing the same, and use thereof” (Asahi Kasei Kogyo Kabushiki Kaisha, priority 1994, dated 1997).

Molecular target: σ-receptor
Assay: σ-receptor binding, [^3 H] DTG displacement on rat brain membranes (Table 1)
Set-up: species or system Sprague-Dowley rats
Conditions: hydrochloride; [^3 H] DTG 3 nM, 25° C., 60 minutes; rat brain membrane; read-out: Sigma [^3 H] DTG Ki
`C1CC2CCC1CN(CCC13CC4CC(CC(C4)C1)C3)C2` [Example 5, 3-[2-(1-adamantyl)ethyl]-3-azabicyclo[3.2.2] nonane] gave a Ki of 0.19 nM.
Work on `CC12CC3CC(C1)CC(CCN1CC4CC5CC(C4)CC1C5)(C3)C2` [Example 12] yielded a Ki of 0.29 nM.
In the case of `C1C2CC3CC1CC(C2)C3CCN1CC2CC3CC(C2)CC1C3` (stereo not drawn) [Example 7, 4-[2-(2-adamantyl)ethyl]-4-azatricyclo[4.3.1.1^3.8] undecane], the Ki is reported as 0.26 nM.
For `OC12CC3CC(C1)C(CCN1CC4CC5CC(C4)CC1C5)C(C3)C2` (stereo not drawn) [Example 8, 4-[2-(5-hydroxy-2-adanaantyl)ethyl]-4-azatricyclo[4.3.1.1^3.8] undecane], the Ki was 1.23 nM.
With `COC12CC3CC(C1)C(CCN1CC4CC5CC(C4)CC1C5)C(C3)C2` (stereo not drawn) [Example 10, 4-[2-(5-methoxy-2-adamantyl)ethyl]-4-azatricyclo[4.3.1.1^3.8] undecane] the Ki was 0.63 nM.
Work on `C1C2CC3CC1CC(C2)N(CCC12CC4CC(CC(C4)C1)C2)C3` [Example 11, 4-[2-(1-adamantyl)ethyl]-4-azatricyclo[4.3.1.1^3.8] undecane] yielded a Ki of 0.2 nM.
`ClC12CC3CC(C1)C(CCN1CC4CCC(CC4)C1)C(C3)C2` (single isomer, unassigned) [Example 3, 3-[2-(5-chloro-2-adamantyl)ethyl]-3-azabicyclo[3.2.2] nonane] showed a Ki of 0.27 nM.
`CC12CC3CC(C1)CC(CCN1CC4CCC(CC4)C1)(C3)C2` [Example 6, 3-[2-(3-methyl-l-adamantyl)ethyl]-3-azabicyclo[3.2.2] nonane] gave a Ki of 0.45 nM.
In the case of `OC12CC3CC(C1)C(CCN1CC4CCC(CC4)C1)C(C3)C2` (single isomer, unassigned) [Example 2, 3-[2-(5-hydroxy-2-adamantyl)ethyl]-3-azabicyclo[3.2.2] nonane], the Ki is reported as 0.5 nM.
Compound `ClC12CC3CC(C1)C(CCN1CC4CC5CC(C4)CC1C5)C(C3)C2` (stereo not drawn) [Example 9, 4-[2-(5-chloro-2-adamantyl)ethyl]-4-azatricyclo[4.3.1.1^3.8] undecane] has a Ki of 0.55 nM.
In the case of `COC12CC3CC(C1)C(CCN1CC4CCC(CC4)C1)C(C3)C2` (single isomer, unassigned) [Example 4, 3-[2-(5-methoxy-2-adamantyl)ethyl]-3-azabicyclo[3.2.2] nonane], the Ki is reported as 1.03 nM.
Work on `C1CC2CCC1CN(CCC1C3CC4CC(C3)CC1C4)C2` (stereo not drawn) [Example 1, 3-[2-(2-adamantyl)ethyl]-3-azabicyclo[3.2.2] nonane] yielded a Ki of 0.34 nM.

Same assay, conditions: radioactive ligand for σ-receptor, used in Ki calculation; read-out: Kd (concentration of affinity of radioactive ligand for receptor)
In the case of `Cc1ccccc1NC(=N)Nc1ccccc1C` [radioactive ligand, [^3 H] 1,3-di(2-tolyl) guanidine, reference compound], the Kd is reported as 10.6 nM.

Test system: apomorphine induced climbing
Assay: Suppressive action on apomorphine induced climbing (Table 2)
Assay type: in vivo, ICR mice, male
Conditions: hydrochloride; 30 mg/kg, p.o.; 1 hour before apomorphine 2 mg/kg s.c.; climbing observed 3 minutes after 20-23 minutes
Protocol: Administering dopamine agohist, apomorphine in mouse resulted various abnormal behaviors, and especially, a climbing the cage has been known to be correlated with human schizophrenia. Therefore, a drug showing suppressire activity for apomorphine induced climbing in mice can be presumed to be effective as antischizophrenia activity on humans.
The compounds of the present invention were administered orally in ICR mice, male (Charles River Corp.), and after 1 hour, apomorphine 2 mg/kg was administered subcutaneously. Climbing behaviors of 3 minutes after 20-23 minutes of apomorphine administration were observed. Climbing behavior was observed by entering the mice in stainless steel made wire netting cage and measuring time remaining above the upper part of half part of the cage at observing. A climbing time of apomorphine single administered group is set as 100% and shortened time by administering the drug is shown in suppression rate.
In the case of `C1C2CC3CC1CC(C2)C3CCN1CC2CC3CC(C2)CC1C3` (stereo not drawn) [Example 7, 4-[2-(2-adamantyl)ethyl]-4-azatricyclo[4.3.1.1^3.8] undecane], the Suppressive rate is reported as 60%.
In the case of `OC12CC3CC(C1)C(CCN1CC4CC5CC(C4)CC1C5)C(C3)C2` (stereo not drawn) [Example 8, 4-[2-(5-hydroxy-2-adanaantyl)ethyl]-4-azatricyclo[4.3.1.1^3.8] undecane], the Suppressive rate is reported as 78%.
Work on `C1CC2CCC1CN(CCC1C3CC4CC(C3)CC1C4)C2` (stereo not drawn) [Example 1, 3-[2-(2-adamantyl)ethyl]-3-azabicyclo[3.2.2] nonane] yielded a Suppressive rate of 62%.

Test system: σ-receptor
Assay: not given
Conditions: cited from earlier work
In the case of `O=C(CCCN1CCC(O)(c2ccc(Cl)cc2)CC1)c1ccc(F)cc1` [haloperidol], the “affinity to σ-receptor (background, in words)” value (shortened to “affinity to σ-receptor”) is listed as “bind strongly with σ-receptor”.

Same assay, conditions: prior art; cited from earlier work
In the case of `C[C@@H]1CN(CCCn2c3ccccc3c3ccccc32)C[C@H](C)N1` [limcazol], the “affinity to σ-receptor” value is listed as “show affinity to σ-receptor”.
For `OC(CCCN1CCN(c2ncc(F)cn2)CC1)c1ccc(F)cc1` (stereo not drawn) [BMY-14802], the “affinity to σ-receptor” value is listed as “show affinity to σ-receptor”.
In the case of haloxon, the “affinity to σ-receptor” value is given as “no affinity to σ-receptor”.
For `c1ccc(C2(N3CCCCC3)CCCCC2)cc1` [phencyclidine], the “affinity to σ-receptor” value is given as “has affinities for σ-receptor”.
